Test results reported in ChEMBL document CHEMBL1201862, “PubChem BioAssay data set” (2004).
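Briefly, cells in 96-well plates were exposed to five compound concentrations for 48 h, and endpoints were estimated by linear interpolation. GI50 is the concentration that inhibits growth by half.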 Activity calls are given as the source filed them. Cut-off read from the data, not from the text of the source: active = GI50 up to about 1.1 µM and inactive = higher.

Assays:
Assay in all cases: NCI tumour cell line growth inhibition, 48 h
[1] = system: OVCAR-5
[2] = system: SK-MEL-5
[3] = system: KM12
[4] = system: COLO 205
[5] = system: ACHN
[6] = system: UACC-257
[7] = system: CAKI-1
[8] = system: SK-MEL-2
[9] = system: HL-60
[10] = system: DU-145
[11] = system: OVCAR-8
[12] = system: TK-10
[13] = system: MCF7
[14] = system: HOP-62
[15] = system: OVCAR-4
[16] = system: RPMI-8226
[17] = system: SNB-19
[18] = system: A498
[19] = system: MOLT-4
[20] = system: NCI-H226

Measured: GI50

C/C(=N\Nc1nc2ccccc2s1)c1ccc2ccccc2n1
inactive: [1] 91 µM | [2] 30.2 µM | [3] 59.2 µM | [4] 75.7 µM | [5] > 100 µM | [6] > 100 µM | [7] 55.6 µM | [8] 58.5 µM | [9] 23.2 µM | [10] > 100 µM | [11] > 100 µM | [12] 88.7 µM | [13] 46.3 µM | [14] > 100 µM | [15] 11.2 µM | [16] 18.5 µM | [17] > 100 µM | [18] > 100 µM

CCCCCCCC(CC(=O)NC(CO)C(=O)NC(CO)CC(C)C)OC(=O)CC(CCCCCCC)OC(=O)CC(CCCCCCC)OC1OC(C)C(O)C(OC2OC(C)C(O)C(OC(C)=O)C2O)C1O (stereo unspecified)
inactive: [1] 11.7 µM | [2] 12.6 µM | [3] 8.99 µM | [4] 5.86 µM | [5] 17.2 µM | [6] 5.77 µM | [7] 15.7 µM | [9] 5.69 µM | [10] 10.4 µM | [11] 13.9 µM | [12] 15.6 µM | [19] 2.81 µM | [20] 17.4 µM | [13] 11.9 µM | [14] 12.2 µM | [15] 12.8 µM | [17] 6.43 µM | [18] 13.2 µM

O=C1c2cccc3cc([N+](=O)[O-])cc(c23)C(=O)N1c1ccc(OCCN2CCCC2)cc1
inactive: [1] 19.4 µM | [2] 13.9 µM | [3] 22.2 µM | [4] 9.46 µM | [5] 10 µM | [6] 16.8 µM | [7] > 100 µM | [8] 24.5 µM | [9] 10.8 µM | [10] 23.3 µM | [11] 19.8 µM | [12] 22.4 µM | [19] 4.85 µM | [20] 9.35 µM | [13] 7.94 µM | [14] 30.5 µM | [15] 28.1 µM | [17] 26.1 µM | [18] 12.4 µM

COc1cc2oc(-c3ccc4c(c3)OCO4)c(OC)c(=O)c2c(OC)c1O
inactive: [1] > 100 µM | [2] 25.4 µM | [3] > 100 µM | [4] > 100 µM | [5] 67.8 µM | [6] > 100 µM | [7] > 100 µM | [9] 28.7 µM | [10] > 100 µM | [11] 32.8 µM | [12] 56.4 µM | [19] 45.7 µM | [20] > 100 µM | [13] 69.7 µM | [14] 57.4 µM | [15] 59.3 µM | [17] > 100 µM | [18] 45.4 µM

COc1ccccc1/C=C\C(=O)C1COCN1 (stereo unspecified)
inactive: [1] 24.7 µM | [2] 10.6 µM | [3] 4.39 µM | [4] 6.35 µM | [5] 10.7 µM | [6] 18.1 µM | [7] 18.3 µM | [8] 21.3 µM | [9] 19 µM | [10] 17.3 µM | [11] 14.5 µM | [12] 21.2 µM | [19] 3.95 µM | [20] 18.7 µM | [13] 5.53 µM | [14] 21.4 µM | [15] 16.3 µM | [16] 2.24 µM | [17] 13.1 µM

CC(=O)c1c2c(cc3c1CC1(C3)Cc3cc4c(c(C(=O)O)c3C1)CCCC4)CCCC2.CC(N)c1ccccc1 (stereo unspecified)
inactive: [1] 28.5 µM | [2] 22.9 µM | [3] 27 µM | [4] 27.9 µM | [5] 28.8 µM | [6] 30.9 µM | [7] 33.4 µM | [8] 28.1 µM | [9] 25.5 µM | [10] 49 µM | [11] 28.2 µM | [12] 37.5 µM | [19] 17.6 µM | [13] 29.1 µM | [14] 21.6 µM | [15] 37 µM | [16] 31.6 µM | [17] 46.5 µM

CC(C(O)Cc1ccccc1)N(C)/N=N/c1ccc([N+](=O)[O-])cc1 (stereo unspecified)
inactive: [1] 25.5 µM | [2] 18.6 µM | [3] 21.7 µM | [4] 21.2 µM | [5] 25.6 µM | [6] 21.4 µM | [7] 21.9 µM | [8] 16.9 µM | [9] 84.1 µM | [10] 27 µM | [11] 17.6 µM | [12] 22.5 µM | [19] 18.2 µM | [20] 19.5 µM | [13] 24 µM | [14] 16.7 µM | [15] 29.9 µM | [16] 16.9 µM | [17] 39.4 µM

Cc1cc2ccccc2oc(=O)/c1=N\Nc1ccccc1
inactive: [1] > 100 µM | [2] 84.1 µM | [3] 58.2 µM | [4] > 100 µM | [5] 22.6 µM | [6] > 100 µM | [7] 37.4 µM | [8] > 100 µM | [9] > 100 µM | [10] > 100 µM | [11] 28.8 µM | [19] > 100 µM | [20] 47.9 µM | [13] 83.2 µM | [14] 19.3 µM | [15] 48.1 µM | [16] > 100 µM | [17] 36.2 µM | [18] > 100 µM

CC(=O)O[C@H]1CCC2[C@@H]3CCC4Cc5nc6c(nc5C[C@]4(C)C3CC[C@@]21C)CC1CC[C@@H]2C(CC[C@@]3(C)C2CC[C@@H]3C(C)CCCC(C)C)[C@@]1(C)C6 (stereo partly specified)
inactive: [1] > 100 µM | [2] > 100 µM | [3] > 100 µM | [4] > 100 µM | [5] > 100 µM | [6] > 100 µM | [8] > 100 µM | [9] > 100 µM | [10] > 100 µM | [11] > 100 µM | [12] > 100 µM | [19] > 100 µM | [20] > 100 µM | [13] > 100 µM | [14] > 100 µM | [15] > 100 µM | [16] > 100 µM | [17] > 100 µM

O=c1c(-c2ccccc2Cl)coc2cc(F)ccc12
inactive: [1] 27.1 µM | [2] 27.3 µM | [3] 21.5 µM | [4] 44.7 µM | [5] > 100 µM | [6] 23.9 µM | [7] 29.1 µM | [8] 66.4 µM | [9] 4.3 µM | [10] 27 µM | [11] 33.7 µM | [12] 47.9 µM | [19] 22 µM | [20] 23.4 µM | [13] 21.7 µM | [14] 22.2 µM | [15] > 100 µM | [17] 22.9 µM | [18] 7.67 µM

O=C(O)CCCN/C(=C1\C(=O)C(=O)N(c2ccccc2)C1=O)c1ccccc1
inactive: [1] > 100 µM | [2] > 100 µM | [3] > 100 µM | [4] > 100 µM | [5] > 100 µM | [6] > 100 µM | [7] > 100 µM | [8] > 100 µM | [9] > 100 µM | [10] > 100 µM | [11] > 100 µM | [12] > 100 µM | [19] > 100 µM | [20] > 100 µM | [13] > 100 µM | [14] > 100 µM | [15] 37.2 µM | [16] > 100 µM | [17] > 100 µM

C=C(C)CCC1C=[N+]([O-])OC(C)(C)C1(C)C (stereo unspecified)
inactive: [1] > 100 µM | [2] > 100 µM | [3] > 100 µM | [4] > 100 µM | [5] > 100 µM | [6] > 100 µM | [7] > 100 µM | [9] 30.1 µM | [10] > 100 µM | [11] > 100 µM | [12] > 100 µM | [19] > 100 µM | [20] > 100 µM | [13] 73.5 µM | [14] > 100 µM | [16] > 100 µM | [18] > 100 µM

Cc1ccc(CNc2ccc(Br)cc2)cc1
inactive: [1] > 100 µM | [2] 6.71 µM | [3] 16.3 µM | [4] 16.5 µM | [5] 11.4 µM | [6] 24.9 µM | [7] 31.6 µM | [9] 25.2 µM | [10] 90.4 µM | [11] 16.3 µM | [12] 40 µM | [19] 44.8 µM | [20] 60 µM | [13] 18.7 µM | [14] 83.2 µM | [16] 3.44 µM | [17] > 100 µM | [18] 29.3 µM

CC(=O)C(C(=O)c1ccc(C)cc1)[C@@H]1OC(C)(C)O[C@@H]1[C@H]1COC(C)(C)O1 (stereo partly specified)
inactive: [1] 40.9 µM | [2] 12.1 µM | [3] 4.02 µM | [4] 18.1 µM | [5] 9.59 µM | [6] 12.4 µM | [7] 21.5 µM | [8] 8.99 µM | [9] 1.67 µM | [10] 7.74 µM | [11] 7.26 µM | [12] 30.3 µM | [19] 2.61 µM | [13] 3.48 µM | [14] 10.5 µM | [15] 4 µM | [16] 2.36 µM | [17] 15.7 µM | [18] 36.9 µM

c1ccc(CN2C3C4N(Cc5ccccc5)C2C2N(Cc5ccccc5)C(C(N2Cc2ccccc2)N4Cc2ccccc2)N3Cc2ccccc2)cc1
inactive: [1] > 100 µM | [2] > 100 µM | [3] > 100 µM | [4] > 100 µM | [5] > 100 µM | [6] > 100 µM | [7] > 100 µM | [8] > 100 µM | [9] > 100 µM | [10] > 100 µM | [11] > 100 µM | [12] > 100 µM | [19] > 100 µM | [20] > 100 µM | [13] > 100 µM | [14] > 100 µM | [16] > 100 µM | [18] > 100 µM
